Laboratory results from patent US20100172854A1, “ANTIBACTERIAL FORMULATIONS” (priority 2007, published 2010).
≈ marks a conversion by molar mass, not a printed value.

Legend:
Assay in all cases: MBC assay
Format in all cases: cell-based
[1] = system: Listeria monocytogenes ATCC 15313
Procedure: (§1) This assay, normally carried out after an MIC assay, determines the minimum concentration of a compound that is lethal to the micro-organism being tested.
(§2) These samples were then individually sub-cultured on antibiotic-free agar medium, under the incubation conditions described above. Following incubation they were examined visually for microbial growth.

[2] = system: Clostridium difficile ATCC 7000057
Procedure: as §1, §2

[3] = system: Actinomyces naeslundii ATCC 12104
Procedure: as §1, §2

[4] = system: Clostridium sporogenes ATCC 3584
Procedure: as §1, §2

[5] = system: Corynebacterium mucifaciens ATCC 700355; conditions: ATCC700355
Procedure: as §1, §2

[6] = system: Streptococcus pyogenes ATCC 12344
Procedure: as §1, §2

[7] = system: Bacillus cereus ATCC 11778
Procedure: as §1, §2

[8] = system: Prevotella nigrescens ATCC 33563
Procedure: as §1, §2

[9] = system: Streptococcus sobrinus ATCC 33478
Procedure: as §1, §2

[10] = system: Gardnerella vaginalis ATCC 14018
Procedure: as §1, §2

[11] = system: Porphyromonas gingivalis NCTC 11834
Procedure: (§3) The P. gingivalis strains were cultured and maintained on Wilkins-Chalgren Anaerobe Medium (agar and broth) at pH 7.0; all cultures were incubated anaerobically at 37° C. for 5-7 days.
as §1, §2

[12] = system: Porphyromonas gingivalis ATCC BAA-308
Procedure: as §3, §1, §2

[13] = system: Porphyromonas gingivalis ATCC 53978
Procedure: as §3, §1, §2

Compound: Cc1cc(Cc2cc(C)cc(C(C)(C)C)c2O)c(O)c(C(C)(C)C)c1 [AO 2246, 2,2′-methylene-bis(4-methyl-6-tert-butylphenol)]
- MIC/MBC Ratio [1]: 0.25
- MBC ([1]; ATCC15313): 7.8 µg/mL (≈ 22.9 µM)
- MIC/MBC Ratio [2]: 1
- MBC ([2]; Clostridioides difficile, ATCC7000057): 3.9 µg/mL (≈ 11.5 µM)
- MIC/MBC Ratio [3]: 0.5
- MBC ([3]; ATCC12104): 3.9 µg/mL (≈ 11.5 µM)
- MIC/MBC Ratio [4]: 0.125
- MBC ([4]; ATCC3584): 31.2 µg/mL (≈ 91.8 µM)
- MBC ([5]; Corynebacterium mucifaciens ATCC 700355): 3.9 µg/mL (≈ 11.5 µM)
- MIC/MBC Ratio ([5]; Corynebacterium mucifaciens): 0.5
- MIC/MBC Ratio [6]: 1
- MBC ([6]; ATCC12344): 0.98 µg/mL (≈ 2.88 µM)
- MIC/MBC Ratio [7]: 0.5
- MBC ([7]; ATCC11778): 3.9 µg/mL (≈ 11.5 µM)
- MIC/MBC Ratio [8]: <0.5
- MBC ([8]; ATCC33563): > 15.6 µg/mL
- MIC/MBC Ratio [9]: 0.5
- MBC ([9]; ATCC33478): 31.2 µg/mL (≈ 91.8 µM)
- MIC/MBC Ratio [10]: 1
- MBC ([10]; ATCC14018): 15.6 µg/mL (≈ 45.8 µM)
- MIC/MBC Ratio [11]: 1
- MBC ([11]; NCTC11834): 3.9 µg/mL (≈ 11.5 µM)
- MIC/MBC Ratio [12]: 1
- MBC ([12]; ATCCBAA308): 3.9 µg/mL (≈ 11.5 µM)
- MBC [13]: 1.95 µg/mL (≈ 5.73 µM)
- MIC/MBC Ratio [13]: 0.5
